Patent publication US11065277B2, “Method of ameliorating side effects of sickle cell disease treatments” (ALBERT EINSTEIN COLLEGE OF MEDICINE, priority 2015, dated 2021)
Entries after “also recorded” stand apart in the source; their conditions may differ.

Tests used:
BERK mice [1] = assay: Intravital microscopy of the systemic circulation (shear rate, volumetric flow rate, leukocyte adhesion, sickling); format: in vivo, mouse
[2] = Plasma level after 10% top load infusion; format: in vivo, mouse; conditions: low gamma BERK mice, infusion of 6 gm % solution at 10% top load
Description: Infusion of a 6 gm % solution EAF P3K6 Hb to a low gamma BERK mice at 10% top load results in a presence of 0.3 gm/dl EAF P3K6 Hb in the plasma, the HbS in the RBC being 8 gm/dl.

BERK mice [3] = assay: Cerebral blood flow (CBF) after treatment; format: in vivo, mouse
BERK mice [4] = assay: BOLD-RHO (BOLD MRI response to hyperoxia, gray matter); format: in vivo, mouse
Procedure: BL=baseline, PI=post injection. […] Using BOLD MRI imaging (which is sensitive to the tissue concentration of deoxy-Hb) the sufficiency of oxygenation of cerebral tissues was measured by assessing the change in deoxy-Hb which occurs with administration of a short inhalation bolus of 100% O2.

BERK low gamma [5] = assay: Systemic vaso-occlusion and systemic flow in low gamma BERK; format: in vivo, mouse
Description: (§1) Just as with supra-perfusion therapy, a sickle therapy induced toxicity is apparent in the quercetin-based antioxidant therapy of sickle cell disease. […] However, this nearly complete clearance of the vaso-occlusion appears to induces a toxicity to such treated low gamma BERK, as the animal die after six to eight hrs. after infusing quercetin. Accordingly, it was concluded that antisickling, or antioxidant or antiadhesive therapies, need to be combined with anti-anemia therapy to protect the brain tissues from hypoxic effects as the systemic perfusion is improved as vasoconstrictive effects are reduced.
(§2) A lower dosage of the therapeutic that only marginally reduces the severity of the disease as reflected by systemic vaso-occlusion can still moderate the severity of the disease to some degree without creating an oxygen debt in the brain (i.e. the pathology of the disease as reflected by CBF and BOLD, in an organ specific manner).

BERK low gamma [6] = conditions: mouse, in vivo, ip
Description: as §1, §2

[7] = BERK mice, post injection vs baseline, 10% top-load
[8] = low gamma BERK, single dose 20 mg/kg intraperitoneally, three hrs. after infusion
[9] = BERK low gamma, 50 mg/kg intraperitoneal three times a week
[10] = low gamma BERK, daily oral dosing 100/mg per/kg for 10 days

In the case of “EAF-PEG-Hb: extension arm facilitated hemoglobin molecule having 6 molecules of 3,000 mw polyethylene glycol (PEG) attached thereto”, the “Volumetric flow rate / systemic (peripheral) tissue blood flow” value (BERK mice [1]; BERK / sickle transgenic mice, after 10% topload) is reported as “still increased”, the “Leukocyte adhesion in systemic post capillary venules” value (BERK mice [1]; sickle transgenic animals, systemic circulation) is reported as “still reduced” and the “presence in the plasma” value [2] is reported as 0.3 gm/dl. For the same compound, the CBF (BERK mice [3]; [7]) was “drop in CBF; also recorded: decreased”, the CBF (BERK mice [3]; low gamma BERK mice, 6 gm % solution at 10% top load) was “normalize the CBF” and the “BOLD-RHO (hypoxic stress, brain deoxy-Hb response to hyperoxia)” value (BERK mice [4]; [7]) was “No drop in brain deoxy-Hb was detected; also recorded: protected against the decrease in CBF”.
With O=c1c2cc(O)c(O)cc2oc2cc(O)c([C@@H]3O[C@H](CO)[C@@H](O)[C@H](O)[C@H]3O)c(O)c12 [mangiferine, reference compound] the “therapeutic efficacy for SCD (vaso-occlusion)” value (BERK low gamma [5]; BERK low gamma) was “not seen”.
In the case of NC(=O)NO [hydroxy urea, reference compound], the “expression of fetal Hb” value (BERK low gamma [5]; [8]) is reported as “without any expression”, the systemic flow (BERK low gamma [5]; [8]) is reported as “significant improvement” and the vaso-occlusion (BERK low gamma [5]; [8]) is reported as “level close to that of medium gamma BERK”.
For O=c1c(O)c(-c2ccc(O)c(O)c2)oc2cc(O)cc(O)c12 [quercetin, 2-(3,4-dihydroxyphenyl)-3,5,7-trihydroxy-4H-chromen-4-one], the “therapeutic efficacy for SCD (vaso-occlusion)” value (BERK low gamma [5]; BERK low gamma) was “dose dependent”, the vaso-occlusion (BERK low gamma [5]; [9]) was “small attenuation” and the vaso-occlusion (BERK low gamma [5]; BERK low gamma, 200 mg/kg intraperitoneal, measured 3 hrs after infusion) was “nearly completely attenuated”. For the same compound, the “improvement of systemic circulation” value (BERK low gamma [5]; [10]) was 60 to 70%, the “influence on CBF” value (BERK mice [3]; [9]) was “very little influence” and the “influence on CBF” value (BERK mice [3]; [10]) was “without any significant influence”. For the same compound, the toxicity to animals (BERK low gamma [6]; 50 mg/kg) was “not toxic”, the “time of death after infusing” value (BERK low gamma [6]; 200 mg/kg) was “six to eight” and the “influence on BOLD” value (BERK mice [4]; [10]) was “without any significant influence”.
